# Experiments:
# Assay type in all cases: in vivo
# CatG [1] = assay: Bone marrow CatG activity after repeated dosing, Wistar rats; details: for Reduction of CatG activity vs vehicle / Change From Vehicle Control (%) CatG: 7 days
# Description: (§1) Briefly, animals were weighed and randomized into different treatment groups. In total, three different dosing levels of brensocatib were tested in each species and strain; each QD dosing level was equivalent to 1.5-times the matching daily BID dose. For BID dosing, the second daily dose was administered 8-h post the morning dose. C57BL/6 mice were dosed either BID or QD for 7 consecutive days at 0/0, 0.5/0.75, 2/3, and 20/30 mg/kg/day (BID/QD). BALB/c mice were dosed for 7 consecutive days at 0/0, 0.2/0.3, 2/3, and 20/30 mg/kg/day (BID/QD). SD rats were dosed for 9 consecutive days at 0/0, 0.2/0.3, 2/3, and 20/30 mg/kg/day (BID/QD). Wistar rats were dosed for 7 consecutive days at 0/0, 0.2/0.3, 2/3, and 20/30 mg/kg/day (BID/QD).
# (§2) At the completion of the study, animals were sacrificed 16–24 h post their final dose. The hind limb bones (femurs and tibias) were collected at necropsy for bone marrow analysis of NSP activities by kinetic enzymatic assays ([Basso et al., 2022]). See section Quantification of Bone Marrow NSP Activities for details.
# (§3) For the mice, each animal had the femurs and tibias of both hind limbs harvested. For the rat, the femur and tibia from a single hind limb per animal was harvested. Bones were kept on wet ice until processing for bone marrow collection. In brief, bone cutters were used to cut the epiphysis (knobby ends) off the long bones to expose the bone marrow filled cavity. Each bone cavity was then flushed with 5 mL/bone (mouse) or 10 mL/bone (rat) of ice-cold RPMI media through a […] and collected in a 50-mL conical tube. Cells were spun down at 2,500 × g at 4°C for 5 min and the supernatant was aspirated. After which, bone marrow cells were lysed with 1X red blood cell (RBC) lysis buffer (Abcam, ab204733) to eliminate contaminating RBCs and washed with PBS to remove any residual RBC lysis buffer. The resulting white blood cells (WBC) were subsequently lysed with 1% (v/v) Triton X-100 in PBS. Lysates were added to 96-well plates and stored at −80°C until NSP analyses.
# (§4) Bone marrow lysates prepared as described above were diluted and plated onto 96-well assay plates to quantify NSP activities as described previously ([Basso et al., 2022]). Briefly, peptide substrates for NE (N-Methoxysuccinyl-Ala-Ala-Pro-Val-7-amido-4-methylcoumarin; Sigma; St. Louis, MO; Excitation/Emission at 350/450 nm), PR3 ((7-Methoxycoumarin-4-yl)acetyl-lysyl-(picolinoyl)-Tyr-Asp-Ala-Lys-Gly-Asp-N-3-(2-4-dinitrophenyl)-2-3-diaminopropyonyl-NH2); GenScript; Piscataway, NJ; Excitation/Emission at 340/430 nm), and CatG (N-Succinyl-Ala-Ala-Pro-Phe p nitroanilide; Sigma; Absorbance at 405 nm) were added at a final assay concentration of 100 μM, 40 μM, and 200 μM, respectively, and either fluorescence or absorbance was quantified using a Synergy microplate reader (BioTek; Winooski, VT). The specific NSP activity in each sample was calculated as the total activity minus the activity in the presence of a specific NSP inhibitor (if used), including elastase inhibitor (Abcam) for NE, sivelestat (Abcam) for PR3, and cathepsin G inhibitor I (Cayman Chemical; Ann Arbor, MI) for CatG. NSP concentrations were interpolated based on their activities relative to the standard curves created using active human NE protein (Sigma), active human PR3 protein (Sigma), and active human CatG protein (Sigma), respectively. Due to unavailability of commercial mouse and/or rat NE, PR3, and CatG proteins, the corresponding human proteins were used instead since their catalytic ability is considered to be conserved across species. A portion of each cell lysate sample was retained for protein quantification using a Pierce™ BCA Protein Assay Kit (Thermo Fisher). The NSP activities were normalized for the cell lysate protein concentrations.
# (§5) The Pierce™ BCA Protein Assay Kit was used to measure the total protein of the samples after lysis to allow for subsequent normalization. […]
# PR3 = assay: Bone marrow PR3 activity after repeated dosing, C57BL/6 mice; details: for Reduction of PR3 activity vs vehicle / Change From Vehicle Control (%) PR3: 7 days
# Description: as §1, §2, §3, §4, §5
# CatG [2] = assay: PD onset study, bone marrow CatG activity, C57BL/6 mice; details: for Percent change from vehicle CatG: bone marrow, 5 mg/kg BID oral
# Description: A 14-day PD onset study was performed in female C57BL/6 mice dosed BID. Mice were dosed by oral gavage either with vehicle (0 mg/kg) or 5 mg/kg brensocatib (BID; 10 mg/kg/day) for 1, 4, 7, 10, or 14 consecutive days. Plasma was collected from animals during the first 24 h of dosing at 1, 2, 8, 9, 10, and 24 h post the initial dose. Note the 8- and 24-h plasma samples were prior to the afternoon dose and the second day dose (if applicable), respectively. Plasma was used for PK analysis via LC-MS/MS. On prescribed days, animals were sacrificed 16 h post final dose, and the hind bones (femurs and tibias) were collected at necropsy for bone marrow analysis of NSP activities by kinetic enzymatic assays.
# as §3, §4
# The Pierce™ BCA Protein Assay Kit was used to measure the total protein of the samples after lysis to allow for subsequent normalization. The manufacturer’s instructions for use were followed when performing this assay on a portion of the sample lysates which were diluted in PBS, the same diluent as used for preparation of the standard. Plates were read on the Biotek Synergy plate reader with Gen5 software.
# NE [3] = assay: Bone marrow NE activity after repeated dosing, Sprague Dawley rats; details: for Reduction of NE activity vs vehicle / Change From Vehicle Control (%) NE: 9 days
# Description: as §1, §2, §3, §4, §5
# NE [4] = assay: Bone marrow NE activity after repeated dosing, C57BL/6 mice; details: 7 days
# Description: as §1, §2, §3, §4, §5
# [5] = BID highest dose (20 mg/kg/day)
# [6] = highest dose level 20/30 (BID/QD) mg/kg/day
# [7] = oral BID 0.5 mg/kg/day, 16 h post final dose
# [8] = oral BID 2 mg/kg/day, 16 h post final dose
# [9] = oral BID 20 mg/kg/day, 16 h post final dose
# [10] = oral QD 0.75 mg/kg/day, 24 h post final dose
# [11] = oral QD 3 mg/kg/day, 24 h post final dose
# [12] = oral QD 30 mg/kg/day, 24 h post final dose
# [13] = 5 mg/kg BID, curve fit with free min and max
compound,measurement,setting,value
Cn1c(=O)oc2ccc(-c3ccc(C[C@@H](C#N)NC(=O)[C@@H]4CNCCCO4)cc3)cc21 [brensocatib],Reduction of CatG activity vs vehicle,CatG [1]; [5],32%
same,Reduction of CatG activity vs vehicle,CatG [1]; QD highest dose (30 mg/kg/day),41%
same,"Combined BID and QD percent reduction, CatG",CatG [1]; [6],37%
same,Change From Vehicle Control (%) CatG,CatG [1]; oral BID 0.2 mg/kg/day,−14% (p = 0.7146)
same,Change From Vehicle Control (%) CatG,CatG [1]; oral BID 2 mg/kg/day,−16% (p = 0.6392)
same,Change From Vehicle Control (%) CatG,CatG [1]; oral BID 20 mg/kg/day,−32% (p = 0.1106)
same,Change From Vehicle Control (%) CatG,CatG [1]; oral QD 0.3 mg/kg/day,+5% (p = 0.9843)
same,Change From Vehicle Control (%) CatG,CatG [1]; oral QD 3 mg/kg/day,−35% (p = 0.0605)
same,Change From Vehicle Control (%) CatG,CatG [1]; oral QD 30 mg/kg/day,−41% (p = 0.0202)
same,Reduction of PR3 activity vs vehicle,PR3; [5],80%
same,Reduction of PR3 activity vs vehicle,PR3; QD highest dose (30 mg/kg/day),65%
same,"Combined BID and QD percent reduction, PR3",PR3; [6],71%
same,Change From Vehicle Control (%) PR3,PR3; [7],9% (p = 0.8059)
same,Change From Vehicle Control (%) PR3,PR3; [8],−44% (p = 0.0041)
same,Change From Vehicle Control (%) PR3,PR3; [9],−80% (p < 0.0001)
same,Change From Vehicle Control (%) PR3,PR3; [10],+2% (p = 0.9977)
same,Change From Vehicle Control (%) PR3,PR3; [11],−46% (p = 0.0008)
same,Change From Vehicle Control (%) PR3,PR3; [12],−65% (p < 0.0001)
same,"Onset: Maximum reduction (plateau), CatG",CatG [2]; [13],97%
same,"Onset: Time to reach 50% reduction, CatG",CatG [2]; [13],2.8 days
same,"Onset: Time to reach max reduction, CatG",CatG [2]; [13],8.1 days
same,Percent change from vehicle CatG,CatG [2]; after 1 day of treatment,−26% (0.0727)
same,Percent change from vehicle CatG,CatG [2]; after 4 days of treatment,−81% (p < 0.0001)
same,Percent change from vehicle CatG,CatG [2]; after 7 days of treatment,−99% (p < 0.0001)
same,Percent change from vehicle CatG,CatG [2]; after 10 days of treatment,−93% (p < 0.0001)
same,Percent change from vehicle CatG,CatG [2]; after 14 days of treatment,−99% (p < 0.0001)
same,Reduction of NE activity vs vehicle,NE [3]; [5],38%
same,Reduction of NE activity vs vehicle,NE [3]; QD highest dose (30 mg/kg/day),36%
same,"Combined BID and QD percent reduction, NE",NE [3]; [6],37%
same,Change From Vehicle Control (%) NE,NE [3]; oral BID 0.2 mg/kg/day,+6% (p = 0.6846)
same,Change From Vehicle Control (%) NE,NE [3]; oral BID 2 mg/kg/day,−18% (p = 0.0243)
same,Change From Vehicle Control (%) NE,NE [3]; oral BID 20 mg/kg/day,−38% (p < 0.0001)
same,Change From Vehicle Control (%) NE,NE [3]; oral QD 0.3 mg/kg/day,−2% (p = 0.9973)
same,Change From Vehicle Control (%) NE,NE [3]; oral QD 3 mg/kg/day,−19% (p = 0.2196)
same,Change From Vehicle Control (%) NE,NE [3]; oral QD 30 mg/kg/day,−36% (p = 0.0078)
same,Reduction of NE activity vs vehicle,NE [4]; [5],85%
same,Reduction of NE activity vs vehicle,NE [4]; QD highest dose (30 mg/kg/day),71%
same,Change From Vehicle Control (%) NE,NE [4]; [7],−20% (p = 0.1494)
same,Change From Vehicle Control (%) NE,NE [4]; [8],−71% (p < 0.0001)
same,Change From Vehicle Control (%) NE,NE [4]; [9],−85% (p < 0.0001)
same,Change From Vehicle Control (%) NE,NE [4]; [10],−9% (p = 0.8092)
same,Change From Vehicle Control (%) NE,NE [4]; [11],−55% (p < 0.0001)
same,Change From Vehicle Control (%) NE,NE [4]; [12],−71% (p < 0.0001)
